Reference: US20100047294A1, “SEMI-FINISHED PRODUCT IN THE MANUFACTURE OF A COMPOSITION FOR SKIN OR HAIR CARE” (OY GRANULA AB LTD, priority 2006, published 2010)
Read-outs that look alike come from different tables or passages of the source.

What was measured:
[1] = extracts from knot wood of the tree trunk; compared with Trolox; lower value = better capture; cited from earlier work
[2] = Ability to capture free radicals (statements in words)

In the case of `COc1cc(C[C@H]2COC(=O)[C@@H]2Cc2ccc(O)c(OC)c2)ccc1O` [matairesinol], the “Capture of peroxyl radicals in vitro” value [1] is listed as 345 g/mol.
In the case of `COc1cc(C[C@@H](CO)[C@H](CO)Cc2ccc(O)c(OC)c2)ccc1O` [secoisolariciresinol], the “ability to capture free radicals, in words” value [2] is reported as “relatively good in capturing the free radicals”.
In the case of `Cc1c(C)c2c(c(C)c1O)CCC(C)(C(=O)O)O2` (centres unmarked) [trolox, reference compound], the “Capture of peroxyl radicals in vitro” value [1] is listed as 125 g/mol.
For `COc1cc(C[C@H]2C(=O)OC[C@@H]2[C@H](O)c2ccc(O)c(OC)c2)ccc1O` [hydroxymatairesinol], the “ability to capture free radicals, in words” value [2] is given as “relatively good in capturing the free radicals” and the “Capture of peroxyl radicals in vitro” value [1] is given as 179 g/mol.
For `Oc1ccc([C@H]2Oc3c(ccc(O)c3O)[C@@H](O)[C@H]2O)cc1` [teracasidine], the “Capture of peroxyl radicals in vitro” value [1] is listed as 128 g/mol.
In the case of `COc1cc(C[C@H]2COC(=O)C2C(=O)c2ccc(O)c(OC)c2)ccc1O` (some centres unmarked) [7-oxomatairesinol], the “ability to capture free radicals, in words” value [2] is reported as “even better than that of hydroxymatairesinol”, the “ability to capture free radicals, in words” value ([2]; listed as Oxomatairesinol) is reported as “comparable to that of hydroxymatairesinol or even better” and the “ability to capture free radicals, in words” value ([2]; listed as oxomatairesinol) is reported as “relatively good in capturing the free radicals”.
For `COc1cc([C@H]2c3cc(O)c(OC)cc3C[C@@H](CO)[C@@H]2CO)ccc1O` [cyclolariciresinol], the “Capture of peroxyl radicals in vitro” value [1] is given as 118 g/mol.
For `COc1cc(CC2COC(=O)C2(O)Cc2ccc(O)c(OC)c2)ccc1O` (centres unmarked) [nortrachelogenin], the “Capture of peroxyl radicals in vitro” value [1] is given as 169 g/mol.
For `Oc1ccc([C@H]2Oc3c(ccc(O)c3O)[C@@H](O)[C@H]2O)cc1O` [melacasidine], the “Capture of peroxyl radicals in vitro” value [1] is listed as 50 g/mol.
In the case of `COc1cc(C[C@H]2CO[C@H](c3ccc(O)c(OC)c3)[C@H]2CO)ccc1O` [lariciresinol], the “Capture of peroxyl radicals in vitro” value [1] is given as 370 g/mol.
In the case of pinoresinol, the “Capture of peroxyl radicals in vitro” value [1] is listed as 129 g/mol.
